# Laboratory results: PubChem BioAssay AID179 (DTP/NCI, 2004)
# Values joined by “and” are separate entries in the source; they are usually repeats but may differ in a detail not shown here. Equal values may be shown once. Active and inactive are the calls of the source.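 Rule for the calls: active = compounds giving half or more protection of infected cells from virus-caused growth loss, again on retest; inactive = the rest.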
# Test system: CEM cells HIV-1 protection, formazan growth assay
# Experiment: NCI AIDS Antiviral Assay
# Conditions: for IC50: measured here: growth of uninfected CEM cells
# How it was run: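 Screen of anti-HIV-1 activity in human CEM cells using a formazan-based growth measurement at five drug concentrations. Hits with 50% or greater protection were repeated, and confirmation required reproducible complete protection.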
Compound,EC50,IC50,outcome
CC(C)CCCC(C)[C@H]1CC[C@H]2[C@@H]3CC[C@H]4C[C@@H](CCCC(c5cc(Cl)c(OCc6ccc(C(=O)O)cc6)c(C(=O)O)c5)c5cc(Cl)c(OCc6ccc(C(=O)O)cc6)c(C(=O)O)c5)CC[C@]4(C)[C@H]3CC[C@]12C (stereo partly specified),20.4 µM and 3.39 µM,> 200 µM and 20 µM,–
CC1=NN2C(=O)C(c3ccccc3)SC2=NC(C)(C)C1 (stereo unspecified),> 457 µM,> 457 µM,–
O=C1OC(=O)c2c1cc1cc3c(cc1c2-c1ccc2c(c1)OCO2)OCO3,–,–,inactive
O=C1NC(=O)C(CCCCO)N1 (stereo unspecified),–,–,inactive
CCCCCC=C(c1cc(Cl)c(OC)c(C(N)=O)c1)c1cc(Cl)c(OC)c(C(N)=O)c1,1.82 µM,15.8 µM,–
O=C(Nc1ccccc1)N1C(c2ccccc2)=N[C@@H](c2ccccc2)[C@@H]1c1ccccc1,–,–,inactive
COc1c(OC)c(C2(O)C(=O)N(C)c3ccccc32)c(OC)c(OC)c1C1(O)C(=O)N(C)c2ccccc21 (stereo unspecified),> 200 µM,> 200 µM,–
CC(C)[Si]1(C(C)C)OCC2OC3(CO)C(Oc4nc(=O)ccn43)C2O[Si](C(C)C)(C(C)C)O1 (stereo unspecified),> 200 µM,18.6 µM,–
CC(=O)C1C(=O)C(=O)N(c2ccccc2C(C)C)C1=O (stereo unspecified),–,–,inactive
O=C(O)CCCCCCCCCCCCCCC(=O)O,> 18.2 µM,> 18.2 µM,–
Cc1ccc(C(C)C)c(OP(=S)(S)Oc2cc(C)ccc2C(C)C)c1,> 200 µM,4.17 µM,–
C=CC1C(C[C@@H]2c3cc(O)c(O)cc3CCN2C(C)=O)C(C(=O)OC)=CO[C@H]1OC1OC(CO)C(O)C(O)C1O (stereo partly specified),–,–,inactive
CCCCCCCCCCCC[N+]12CC[N+](C)(CC1)CC2,> 251 µM,14.8 µM,–
O=C(O)c1ccccc1C(=O)OC1CC2CC1C1OCC21 (stereo unspecified),> 309 µM,> 309 µM,–
O=[N+]([O-])c1ccc(N2N=C(c3ccc(NCc4nc5ccccc5[nH]4)cc3)CC2c2ccco2)cc1 (stereo unspecified),> 15.1 µM,> 15.1 µM,–
COc1ccccc1C12OC(=O)C1(C)Oc1ccccc1C2=O (stereo unspecified),–,–,inactive
CCOC(=O)/C(=C/c1ccc([N+](=O)[O-])cc1)C(=O)c1ccccc1,> 22.4 µM,13.5 µM,–
Cc1cc(S(=O)(=O)O)c(NC(=O)C(=O)C2C=CCS2(=O)=O)cc1Cl (stereo unspecified),> 631 µM,> 631 µM,–
COc1cc(Br)c(-c2coc3c(OC)c(OC)ccc3c2=O)cc1OC,> 50.1 µM,> 50.1 µM,–
c1ccc([P+](CCN2Cc3ccccc3C2)(c2ccccc2)c2ccccc2)cc1,> 200 µM,3.31 µM,–

Compound,EC50,IC50,outcome
c1ccc2c(c1)nc(NC1CCCC1)c1[nH]c(C3CCCC3)nc12,> 200 µM,25.1 µM,–
COc1cc(NCC(C#N)C#N)ccc1N=Nc1ccc([N+](=O)[O-])cc1,> 38.9 µM,> 38.9 µM,–
COc1ccc2c(c1)OC[C@H]1c3cc(O)c(O)cc3O[C@@H]21,–,–,inactive
Nc1nn2cc3c(nc2c1N=Nc1ccccc1)CCCCC3,> 200 µM,> 200 µM,–
CC1(C)COC(c2cccc(C(O)c3ccc(Cl)cc3)c2)=N1 (stereo unspecified),> 200 µM,38.9 µM,–
CC(=O)NNc1nc(C)c(C(=O)/C=C/c2ccccc2Cl)s1,> 77.6 µM,58.9 µM,–
CC1(C)O[C@@H]2[C@@H]3OC(=O)C[C@@H]3[C@@H](COCc3ccccc3)[C@@H]2O1,> 200 µM,> 200 µM,–
O=[N+]([O-])c1cc2n[nH]nc2c2nonc12,> 200 µM,4.79 µM,–
NS(=O)(=O)c1ccc(NC(=S)/N=C/c2c(O)c3ccccc3oc2=O)cc1,> 200 µM,110 µM,–
O=S(=O)(O)CC(S(=O)(=O)O)S(=O)(=O)O,> 200 µM,> 200 µM,–
CCN(CC)CC1CCCCN1CC(=O)N1c2ccccc2NC(=O)CC1C (stereo unspecified),158 µM,> 200 µM,–
COc1ccccc1-n1nnc2c(N)nc(N)nc21,> 200 µM,> 200 µM,–
CCCc1cc(=O)oc2c3c(cc(OC)c12)O[C@H](C)[C@H](C)[C@@H]3O,> 200 µM,38.9 µM,–
COc1ccc(C2SCC(=O)N2c2ccc(-n3c(-c4ccccc4)nc4ccccc4c3=O)cc2)cc1OC (stereo unspecified),> 200 µM,> 200 µM,–
[N-]=[N+]=NC1CC(n2cc(C(OCC(F)(F)F)OCC(F)(F)F)c(=O)[nH]c2=O)OC1CO (stereo unspecified),25.1 µM,107 µM,–
CC1(C)OCC(CO)(Nc2nc(N3CC3)nc(N3CC3)n2)CO1,> 200 µM,0.741 µM,–
Cc1cc(NS(=O)(=O)c2ccc(Nc3c4ccccc4nc4c(C(=O)NCC#N)cccc34)cc2)no1,> 200 µM,10.7 µM,–
C[C@H](CCC(=O)O[C@@H]1CC[C@@]2(C)C(CC[C@H]3[C@@H]4CC[C@H]([C@H](C)CCc5nc6ccccc6[nH]5)[C@@]4(C)CC[C@@H]32)C1)[C@H]1CC[C@H]2[C@@H]3CCC4C[C@H](O)CC[C@]4(C)[C@H]3CC[C@]12C (stereo partly specified),> 100 µM,> 100 µM,–
O=C1NS(=O)(=O)c2cc(Cl)ccc21,> 1150 µM,> 1150 µM,–
